Assays:
CDK9/cyclin T1 = CDK9/cyclin T1 (Homo sapiens, UniProt P50750); conditions: 1 μM; Run 1, Run 2
CLK3 = CLK3 (Homo sapiens, UniProt P49761); conditions: 1 μM; Run 1, Run 2
COT1/MAP3K8 = COT1/MAP3K8 (Homo sapiens, UniProt P41279); conditions: 1 μM; Run 1, Run 2
FER = FER (Homo sapiens, UniProt P16591); conditions: 1 μM; Run 1, Run 2
LRRK2 = LRRK2 (Homo sapiens, UniProt Q5S007); conditions: 1 μM; Run 1, Run 2
P38a/MAPK14 = P38a/MAPK14 (Homo sapiens, UniProt Q16539); conditions: 1 μM; Run 1, Run 2
P38a/MAPK14, sequence (Q16539 whole entry): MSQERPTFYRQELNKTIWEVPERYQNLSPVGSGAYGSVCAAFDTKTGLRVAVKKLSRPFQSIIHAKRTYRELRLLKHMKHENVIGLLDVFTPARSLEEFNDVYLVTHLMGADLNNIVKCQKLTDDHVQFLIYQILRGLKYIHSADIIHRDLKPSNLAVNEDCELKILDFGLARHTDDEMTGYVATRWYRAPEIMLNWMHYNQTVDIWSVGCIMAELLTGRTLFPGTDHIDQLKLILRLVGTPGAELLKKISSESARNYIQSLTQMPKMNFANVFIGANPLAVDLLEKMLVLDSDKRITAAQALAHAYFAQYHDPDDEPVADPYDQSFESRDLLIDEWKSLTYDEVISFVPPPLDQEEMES

Aurora C = molecular target: T1, Aurora C (Homo sapiens, UniProt Q9UQB9); test: biochemical; conditions: read-out: % enzyme activity, 1 μM; Run 1, Run 2
T1 sequence (Q9UQB9 1-309): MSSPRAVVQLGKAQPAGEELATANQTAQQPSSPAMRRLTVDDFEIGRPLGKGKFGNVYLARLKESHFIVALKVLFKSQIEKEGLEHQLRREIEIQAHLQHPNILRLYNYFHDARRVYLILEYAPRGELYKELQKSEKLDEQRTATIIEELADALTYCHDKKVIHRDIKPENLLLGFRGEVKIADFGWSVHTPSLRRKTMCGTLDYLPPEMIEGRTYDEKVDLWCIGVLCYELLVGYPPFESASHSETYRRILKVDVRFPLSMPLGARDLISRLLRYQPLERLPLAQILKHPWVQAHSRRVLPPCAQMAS

CDC7/DBF4 = CDC7/DBF4 (Homo sapiens, UniProt O00311); test: biochemical; conditions: read-out: % enzyme activity, 1 μM; Run 1, Run 2
CDC7/DBF4, sequence (O00311 whole entry): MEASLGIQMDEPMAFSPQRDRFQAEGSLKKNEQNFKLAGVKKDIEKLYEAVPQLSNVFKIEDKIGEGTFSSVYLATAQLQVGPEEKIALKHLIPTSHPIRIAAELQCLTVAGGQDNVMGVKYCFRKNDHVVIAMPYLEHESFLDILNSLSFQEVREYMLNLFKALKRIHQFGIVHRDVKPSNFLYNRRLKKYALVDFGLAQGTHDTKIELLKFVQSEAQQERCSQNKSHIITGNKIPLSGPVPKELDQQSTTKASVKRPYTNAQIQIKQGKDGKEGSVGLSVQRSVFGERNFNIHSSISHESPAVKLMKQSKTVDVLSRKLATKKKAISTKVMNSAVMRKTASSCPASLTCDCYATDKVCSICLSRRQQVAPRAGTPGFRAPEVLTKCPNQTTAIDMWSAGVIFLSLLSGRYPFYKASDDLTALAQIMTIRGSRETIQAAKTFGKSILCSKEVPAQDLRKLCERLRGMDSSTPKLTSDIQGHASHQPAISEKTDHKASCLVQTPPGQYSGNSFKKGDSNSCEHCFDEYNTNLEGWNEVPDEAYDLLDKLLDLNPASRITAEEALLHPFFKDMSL
CDC7/DBF4, sequence (Q9UBU7 whole entry partner): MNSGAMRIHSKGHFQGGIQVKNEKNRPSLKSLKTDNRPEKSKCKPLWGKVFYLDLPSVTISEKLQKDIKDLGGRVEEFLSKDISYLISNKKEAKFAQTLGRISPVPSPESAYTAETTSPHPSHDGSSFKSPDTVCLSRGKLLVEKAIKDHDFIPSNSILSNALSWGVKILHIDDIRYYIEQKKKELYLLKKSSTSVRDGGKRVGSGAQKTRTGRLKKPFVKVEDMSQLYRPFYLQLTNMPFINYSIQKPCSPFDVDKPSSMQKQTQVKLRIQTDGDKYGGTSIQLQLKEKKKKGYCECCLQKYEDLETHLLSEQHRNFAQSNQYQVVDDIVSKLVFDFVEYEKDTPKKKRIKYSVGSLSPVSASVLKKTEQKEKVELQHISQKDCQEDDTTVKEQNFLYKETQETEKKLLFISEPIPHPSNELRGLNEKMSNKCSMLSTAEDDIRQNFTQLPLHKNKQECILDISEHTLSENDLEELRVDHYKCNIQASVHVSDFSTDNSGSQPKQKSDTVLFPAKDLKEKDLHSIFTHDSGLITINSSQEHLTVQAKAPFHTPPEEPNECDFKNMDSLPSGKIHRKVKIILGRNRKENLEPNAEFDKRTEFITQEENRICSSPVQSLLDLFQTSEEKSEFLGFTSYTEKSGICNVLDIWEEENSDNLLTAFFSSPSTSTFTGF

ERBB2/HER2 = ERBB2/HER2 (Homo sapiens, UniProt P04626); test: biochemical; conditions: read-out: % enzyme activity, 1 μM; Run 1, Run 2
IKKb/IKBKB = molecular target: T2, IKKb/IKBKB (Homo sapiens, UniProt O14920); test: biochemical; conditions: read-out: % enzyme activity, 1 μM; Run 1, Run 2
T2 sequence (O14920 1-756): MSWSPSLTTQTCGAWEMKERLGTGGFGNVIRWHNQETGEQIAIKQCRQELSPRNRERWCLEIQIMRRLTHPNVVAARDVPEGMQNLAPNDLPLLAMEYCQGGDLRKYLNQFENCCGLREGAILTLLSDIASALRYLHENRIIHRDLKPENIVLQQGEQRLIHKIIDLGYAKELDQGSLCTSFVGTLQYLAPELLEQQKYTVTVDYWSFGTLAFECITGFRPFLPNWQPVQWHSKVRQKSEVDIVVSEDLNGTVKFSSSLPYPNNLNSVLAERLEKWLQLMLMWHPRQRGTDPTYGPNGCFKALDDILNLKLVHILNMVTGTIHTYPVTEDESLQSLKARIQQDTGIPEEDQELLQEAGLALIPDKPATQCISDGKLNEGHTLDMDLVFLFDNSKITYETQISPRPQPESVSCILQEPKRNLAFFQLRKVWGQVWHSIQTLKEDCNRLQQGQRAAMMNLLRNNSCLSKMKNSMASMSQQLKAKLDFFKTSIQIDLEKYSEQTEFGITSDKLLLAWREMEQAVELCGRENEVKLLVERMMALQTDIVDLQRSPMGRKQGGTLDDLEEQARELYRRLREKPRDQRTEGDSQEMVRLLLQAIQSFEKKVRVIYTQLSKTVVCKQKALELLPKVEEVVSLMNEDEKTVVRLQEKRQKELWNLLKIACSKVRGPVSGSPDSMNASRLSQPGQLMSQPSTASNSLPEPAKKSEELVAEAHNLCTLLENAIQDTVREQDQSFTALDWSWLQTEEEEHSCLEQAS

LOK/STK10 = LOK/STK10 (Homo sapiens, UniProt O94804); test: biochemical; conditions: read-out: % enzyme activity, 1 μM; Run 1, Run 2
P38d/MAPK13 = molecular target: T3, P38d/MAPK13 (Homo sapiens, UniProt O15264); test: biochemical; conditions: read-out: % enzyme activity, 1 μM; Run 1, Run 2
T3 sequence (O15264 1-365): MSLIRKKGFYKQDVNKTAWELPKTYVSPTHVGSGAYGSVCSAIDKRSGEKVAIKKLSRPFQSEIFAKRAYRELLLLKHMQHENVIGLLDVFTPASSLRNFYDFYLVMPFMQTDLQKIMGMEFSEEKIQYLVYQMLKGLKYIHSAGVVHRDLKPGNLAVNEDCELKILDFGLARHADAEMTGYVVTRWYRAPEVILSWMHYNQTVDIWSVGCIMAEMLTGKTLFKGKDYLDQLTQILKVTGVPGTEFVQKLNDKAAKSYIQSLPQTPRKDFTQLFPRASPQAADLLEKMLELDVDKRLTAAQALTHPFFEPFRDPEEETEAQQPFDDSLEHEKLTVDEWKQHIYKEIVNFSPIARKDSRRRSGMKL

P38g = molecular target: T4, P38g (Homo sapiens, UniProt P53778); test: biochemical; conditions: read-out: % enzyme activity, 1 μM; Run 1, Run 2
T4 sequence (P53778 1-367): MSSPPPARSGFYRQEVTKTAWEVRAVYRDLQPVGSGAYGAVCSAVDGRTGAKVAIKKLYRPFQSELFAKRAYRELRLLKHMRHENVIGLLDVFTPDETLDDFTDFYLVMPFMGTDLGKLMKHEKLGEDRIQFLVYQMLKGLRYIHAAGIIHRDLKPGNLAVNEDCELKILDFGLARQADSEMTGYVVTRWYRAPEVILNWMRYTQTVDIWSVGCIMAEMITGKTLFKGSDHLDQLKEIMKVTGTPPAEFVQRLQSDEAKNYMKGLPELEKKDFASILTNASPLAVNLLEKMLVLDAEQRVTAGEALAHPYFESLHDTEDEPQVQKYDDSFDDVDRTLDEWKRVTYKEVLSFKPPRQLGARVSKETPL

PKCd = PKCd (Homo sapiens, UniProt Q05655); test: biochemical; conditions: read-out: % enzyme activity, 1 μM; Run 1, Run 2
RAF1 = RAF1 (Homo sapiens, UniProt P04049); test: biochemical; conditions: read-out: % enzyme activity, 1 μM; Run 1, Run 2

FER, sequence (P16591 whole entry): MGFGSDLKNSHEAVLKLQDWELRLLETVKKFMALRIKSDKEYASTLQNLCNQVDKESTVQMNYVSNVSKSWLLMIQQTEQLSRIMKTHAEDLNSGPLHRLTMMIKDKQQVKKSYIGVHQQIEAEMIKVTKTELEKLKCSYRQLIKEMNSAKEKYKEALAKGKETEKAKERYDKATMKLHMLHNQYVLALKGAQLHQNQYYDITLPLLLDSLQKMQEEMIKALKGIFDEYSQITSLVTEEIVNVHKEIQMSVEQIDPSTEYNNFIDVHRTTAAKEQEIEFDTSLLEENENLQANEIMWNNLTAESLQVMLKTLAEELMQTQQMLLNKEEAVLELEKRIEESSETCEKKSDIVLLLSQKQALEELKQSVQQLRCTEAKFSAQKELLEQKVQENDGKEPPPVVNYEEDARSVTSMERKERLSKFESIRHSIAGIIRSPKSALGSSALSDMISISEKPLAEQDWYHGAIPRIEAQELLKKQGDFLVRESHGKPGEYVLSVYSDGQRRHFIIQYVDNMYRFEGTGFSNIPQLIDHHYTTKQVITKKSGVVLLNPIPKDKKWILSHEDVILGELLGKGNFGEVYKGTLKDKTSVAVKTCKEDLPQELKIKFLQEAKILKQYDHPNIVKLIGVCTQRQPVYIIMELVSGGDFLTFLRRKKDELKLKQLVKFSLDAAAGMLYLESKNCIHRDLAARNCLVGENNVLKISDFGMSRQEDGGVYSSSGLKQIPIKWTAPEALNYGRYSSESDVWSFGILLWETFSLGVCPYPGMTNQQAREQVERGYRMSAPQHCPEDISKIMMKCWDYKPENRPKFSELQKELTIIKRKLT
LRRK2, sequence (Q5S007 whole entry): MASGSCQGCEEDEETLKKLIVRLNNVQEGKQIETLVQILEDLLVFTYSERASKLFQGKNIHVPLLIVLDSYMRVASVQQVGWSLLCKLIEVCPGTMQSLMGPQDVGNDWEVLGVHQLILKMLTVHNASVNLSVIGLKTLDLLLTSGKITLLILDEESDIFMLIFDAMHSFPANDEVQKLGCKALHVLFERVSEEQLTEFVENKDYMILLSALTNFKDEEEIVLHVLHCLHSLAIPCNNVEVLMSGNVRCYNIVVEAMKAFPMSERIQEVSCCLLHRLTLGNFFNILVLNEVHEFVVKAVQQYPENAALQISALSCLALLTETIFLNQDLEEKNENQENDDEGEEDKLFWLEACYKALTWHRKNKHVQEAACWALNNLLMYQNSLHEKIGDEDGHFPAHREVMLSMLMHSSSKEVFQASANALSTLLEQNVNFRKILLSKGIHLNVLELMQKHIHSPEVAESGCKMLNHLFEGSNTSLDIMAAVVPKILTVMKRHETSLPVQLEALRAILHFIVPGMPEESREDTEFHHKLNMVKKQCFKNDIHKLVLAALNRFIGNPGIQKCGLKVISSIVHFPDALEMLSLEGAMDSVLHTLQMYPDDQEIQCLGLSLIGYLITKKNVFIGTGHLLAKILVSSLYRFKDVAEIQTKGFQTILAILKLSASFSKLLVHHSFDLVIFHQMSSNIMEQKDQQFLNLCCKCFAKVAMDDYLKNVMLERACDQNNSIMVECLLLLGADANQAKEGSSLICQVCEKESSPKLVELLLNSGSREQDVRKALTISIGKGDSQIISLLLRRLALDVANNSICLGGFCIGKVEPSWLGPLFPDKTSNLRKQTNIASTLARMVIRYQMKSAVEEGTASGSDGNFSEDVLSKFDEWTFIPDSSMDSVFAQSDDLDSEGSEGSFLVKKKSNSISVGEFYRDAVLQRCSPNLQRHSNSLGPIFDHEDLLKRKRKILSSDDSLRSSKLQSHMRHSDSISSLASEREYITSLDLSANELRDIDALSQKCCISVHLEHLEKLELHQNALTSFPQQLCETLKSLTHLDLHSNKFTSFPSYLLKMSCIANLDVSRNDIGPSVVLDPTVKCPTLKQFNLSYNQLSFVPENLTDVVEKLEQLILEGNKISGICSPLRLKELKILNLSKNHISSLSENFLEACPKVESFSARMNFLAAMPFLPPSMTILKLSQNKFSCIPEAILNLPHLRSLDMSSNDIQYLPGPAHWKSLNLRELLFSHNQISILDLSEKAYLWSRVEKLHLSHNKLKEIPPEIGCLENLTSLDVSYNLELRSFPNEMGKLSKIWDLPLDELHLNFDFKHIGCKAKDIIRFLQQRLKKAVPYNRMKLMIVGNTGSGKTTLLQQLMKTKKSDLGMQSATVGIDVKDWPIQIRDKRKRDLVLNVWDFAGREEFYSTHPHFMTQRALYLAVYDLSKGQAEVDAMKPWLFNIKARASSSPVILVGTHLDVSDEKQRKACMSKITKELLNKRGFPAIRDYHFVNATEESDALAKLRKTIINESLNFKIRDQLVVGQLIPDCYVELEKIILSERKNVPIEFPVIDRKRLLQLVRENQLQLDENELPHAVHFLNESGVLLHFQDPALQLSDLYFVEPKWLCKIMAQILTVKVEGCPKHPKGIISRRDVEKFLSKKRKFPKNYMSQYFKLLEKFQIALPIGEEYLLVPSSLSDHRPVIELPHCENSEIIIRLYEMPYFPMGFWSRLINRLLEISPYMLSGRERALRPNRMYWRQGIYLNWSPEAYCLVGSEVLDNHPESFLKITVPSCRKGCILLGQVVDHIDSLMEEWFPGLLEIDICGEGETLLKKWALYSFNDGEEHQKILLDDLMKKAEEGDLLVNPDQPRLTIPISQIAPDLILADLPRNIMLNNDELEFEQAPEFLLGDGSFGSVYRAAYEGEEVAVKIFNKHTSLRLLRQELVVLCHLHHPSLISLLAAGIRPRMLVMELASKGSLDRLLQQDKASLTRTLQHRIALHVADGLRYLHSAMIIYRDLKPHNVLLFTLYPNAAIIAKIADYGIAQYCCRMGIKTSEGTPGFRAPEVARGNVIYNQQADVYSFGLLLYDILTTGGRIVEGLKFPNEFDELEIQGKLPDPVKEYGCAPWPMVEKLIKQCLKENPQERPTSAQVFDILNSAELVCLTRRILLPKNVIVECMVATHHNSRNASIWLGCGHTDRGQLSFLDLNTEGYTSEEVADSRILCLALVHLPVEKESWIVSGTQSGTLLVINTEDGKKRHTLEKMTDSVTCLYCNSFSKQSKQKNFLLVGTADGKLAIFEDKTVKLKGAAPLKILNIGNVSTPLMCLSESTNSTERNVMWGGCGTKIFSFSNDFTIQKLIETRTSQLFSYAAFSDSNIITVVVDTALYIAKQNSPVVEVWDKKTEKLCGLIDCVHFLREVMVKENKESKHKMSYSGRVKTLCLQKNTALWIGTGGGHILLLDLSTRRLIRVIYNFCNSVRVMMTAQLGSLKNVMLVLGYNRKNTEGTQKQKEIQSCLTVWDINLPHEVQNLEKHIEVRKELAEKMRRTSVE

| SMILES | CYP inhibition (CYP2C8) [µM] | % enzyme activity (CDK9/cyclin T1) [%] | % enzyme activity (CLK3) [%] | % enzyme activity (COT1/MAP3K8) [%] | % enzyme activity (FER) [%] | % enzyme activity (LRRK2) [%] | % enzyme activity (P38a/MAPK14) [%] | remaining activity at 1 µM (Aurora C) [%] | remaining activity at 1 µM (CDC7/DBF4) [%] | remaining activity at 1 µM (ERBB2/HER2) [%] | remaining activity at 1 µM (IKKb/IKBKB) [%] | remaining activity at 1 µM (LOK/STK10) [%] | remaining activity at 1 µM (P38d/MAPK13) [%] | remaining activity at 1 µM (P38g) [%] | remaining activity at 1 µM (PKCd) [%] | remaining activity at 1 µM (RAF1) [%] |
| --- | --- | --- | --- | --- | --- | --- | --- | --- | --- | --- | --- | --- | --- | --- | --- | --- |
| COc1cc(-c2cncc(-c3ccc(N4CCN(C)CC4)cc3)c2C)cc(F)c1C(N)=O [Compound 26a, 2-Fluoro-6-methoxy-4-(4-methyl-5-(4-(4-methylpiperazin-1-yl)phenyl)pyridin-3-yl)benzamide] | > 50 | 90.82 | 99.59 | 90.60 | 86.16 | 59.73 | 91.67 | 105 | 92.2 | 89.7 | 104 | 51.8 | 101 | 110 | 99 | 78.7 |
| COc1cc(-c2cncc(-c3ccc(N4C[C@@H](C)N(C)[C@@H](C)C4)cc3)c2C)cc(F)c1C(N)=O [Compound 26c, 2-Fluoro-6-methoxy-4-(4-methyl-5-(4-((3R,5S)-3,4,5-trimethylpiperazin-1-yl)phenyl)pyridin-3-yl)benzamide] | > 50 | 96.85 | 86.89 | 93.89 | 84.91 | 77.27 | 96.02 | 100 | 94.2 | 96.8 | 101 | 68.7 | 97.7 | 108 | 101 | 85.5 |
